This note sets out measurements from PubChem BioAssay AID504322 (Emory University Molecular Libraries Screening Center, 2011).

The structures appear in SMILES notation. Activity calls are given as the source filed them. No rule for the calls is given here.

In the test the test system is CHOP reporter cell assay, percent of control. As to the kind of experiment: CHOP reporter inhibitor potency, dose response, cell-based (AID 504322).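 Also: CHO cells carrying a CHOP reporter stimulated with tunicamycin to induce ER stress; potency is for inhibition of the stress-induced reporter signal.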
As for `O=C(Cn1c(C(F)(F)F)nc2ccccc21)N=Nc1c(O)[nH]c2ccc(Br)cc12`, the IC50 was > 10 µM (inactive). On to `CC(=O)OC[C@]12CCC(C)=C[C@H]1O[C@@H]1[C@H](O)[C@@H](OC(C)=O)[C@@]2(C)[C@]12CO2`, for which the IC50 is < 0.16 µM (inactive). As for `Cc1cc(Cl)n2c(nc3cc(F)c(F)cc32)c1C#N`, the figure is > 10 µM (inactive); as for `COc1cccc(-n2nnnc2S(C)(=O)=O)c1`, 5.51 µM (inactive); as for `O=C(Nc1ccccc1Cl)c1ccccc1Oc1ccc(C(F)(F)F)cc1[N+](=O)[O-]`, 6.53 µM (inactive). As for `CC1=C(CO)C(=O)OC([C@@H](C)C2CC[C@H]3C4C[C@H]5O[C@]56[C@@H](O)C=CC(=O)[C@]6(C)C4CC[C@]23C)C1` (some centres undefined), the figure is > 10 µM (inactive); as for `O=S(=O)(NC1CC1)c1ccc(S(=O)(=O)N2CCCC3(CCCCC3)C2)cc1`, 6.79 µM (inactive). As for `O=C1C(C2=NC(c3ccccn3)C3C(=O)N(c4ccc(Cl)cc4Cl)C(=O)C23)=C(O)c2ccccc21` (centres undefined), the figure is 7.17 µM (inactive).

Take `COC(=O)[C@]12OC[C@]34C([C@@H](O)[C@@H]1O)[C@]1(C)CC(=O)C(O)=C(C)[C@@H]1C[C@H]3OC(=O)[C@H](O)[C@@H]24` (some centres undefined): the IC50 is < 0.16 µM. As for `O=C(Nc1nccs1)c1cc2c(s1)CCCCC2`, the figure is > 10 µM (inactive); as for `CCCCc1nc(NCCN)c(C#N)c2c1CSC(C)(C)C2`, 5.15 µM (inactive). As for `Cc1cc(C)c(S(=O)(=O)c2ccccc2)c(OC(=O)c2cc(F)c(F)cc2Cl)n1`, the figure is 8.2 µM (inactive); as for `Cc1cccc(N2CCN(C(=O)CS(=O)(=O)Cc3nc(-c4ccccc4F)oc3C)CC2C)c1` (centres undefined), > 10 µM (inactive). For the compound `CC(C)C(=O)N1CCC(CN=Cc2c(O)n(C3CCCCC3)c(=O)n(C3CCCCC3)c2=O)CC1`, the IC50 was 9.9 µM (inactive). As for `COc1ccc(/C=C2/C(=O)ON=C2c2ccccc2)cc1OC`, the figure is > 10 µM (inactive). As to `CCc1ccc(OCc2n[nH]c(=S)n2C(C)CCCC(C)C)cc1` (centres undefined), the IC50 is 2.44 µM.

For `Cc1cc(C(=O)CCl)c(C)n1-c1cccc(S(=O)(=O)N2CCOCC2)c1`, the IC50 was > 10 µM (inactive). As for `CCCCCCN1C=CC(=C2C(=O)c3ccccc3C2=O)C=C1`, the figure is 6.36 µM (inactive); as for `O=C(/C=C\c1cn(-c2ccccc2)nc1-c1ccccc1)Nc1nccs1`, 6.03 µM (inactive); as for `NC(=S)n1[nH]c(-c2ccc([N+](=O)[O-])cc2)c(N=Nc2cccc([N+](=O)[O-])c2)c1=O`, 4.4 µM (inactive). On to `Cc1nn(-c2ccccc2Cl)c(Cl)c1/C=N/Nc1nc2ccccc2s1`, for which the IC50 is < 0.16 µM. As for `CC1CCCC(NCC(O)COC(c2ccc(F)cc2)c2ccc(F)cc2)C1C` (centres undefined), the figure is 9.43 µM (inactive). As for `CCCCN=c1scc(-c2ccc3c(c2)NC(=O)CO3)n1N=C1CCCC1`, the IC50 was 8 µM (inactive). As for `Oc1ccc(Br)cc1-c1nc2cnccn2c1NC1CCCCC1`, the figure is > 10 µM (inactive); as for `CCc1ccc(OCC(=O)NC(NC(=S)Nc2ccc(Cl)cc2)C(Cl)(Cl)Cl)cc1` (centres undefined), 5.13 µM (inactive); as for `O=C1C(Cl)=C(Nc2ccccc2)C(=O)c2ccccc21`, > 10 µM (inactive).

As for `COc1cc(/C=N/NC(=O)Nc2ccccc2)ccc1OCCOc1ccccc1C`, the IC50 was 9.34 µM (inactive). As for `O=C(OCn1ncc(Cl)c(Cl)c1=O)c1ccc(F)cc1`, the figure is 3.35 µM; as for `CC1CCCC(NC(=O)COC(=O)/C=C/c2ccc3c(c2)OCO3)C1C` (centres undefined), > 10 µM (inactive); as for `FC(F)(F)c1cccc(Sc2nc(-c3ccccc3)nnc2C(F)(F)F)c1`, 9.58 µM (inactive). As to `COc1cc(C(=O)OC(C)C(=O)NCC2CCCCC2)cc(NC(=O)c2ccco2)c1OC` (centres undefined), the IC50 is > 10 µM (inactive). Take `Nc1ccc2c(c1)C(=O)C(=O)c1ccccc1-2`: the IC50 was 5.08 µM (inactive). As for `O=C1NC(=S)S/C1=C\C=C\c1ccc([N+](=O)[O-])o1`, the figure is 9.29 µM (inactive); as for `COc1cccc(NC(=O)CSc2nnc(-c3cc(C)n(-c4ccccc4)c3C)o2)c1`, 1.76 µM (inactive).

`O=[N+]([O-])c1ccc(NC(=S)NCCc2ccc(Cl)cc2)cc1`: the IC50 is > 10 µM (inactive).

Regarding `Cc1ccc2c(c1)c1c(n2CC(O)Cn2c(C)nc3ccccc32)CCCC1` (centres undefined), the IC50 was 6.68 µM (inactive). As for `Cc1cc(C)c(S(=O)(=O)NCCn2c(C)cc3ccccc32)c(C)c1`, the figure is 9.61 µM (inactive). As for `COc1ccc(N=c2oc3ccc(OC)cc3cc2-c2nc3ccccc3[nH]2)cc1`, the figure is 9.72 µM (inactive); as for `Cn1c2ccccc2c(=O)c2c(=O)n(C3CCCCCC3)c(C3CCCCC3)nc21`, 9.65 µM (inactive); as for `S=C(Nc1ccccc1)Nc1ccc(OCc2ccc(Cl)cc2Cl)cc1`, 0.33 µM. As for `Cc1cccc(/C=N/Nc2ccc3ccccc3n2)c1`, the figure is > 10 µM (inactive). On to `COc1cc(/C=C(/C#N)c2nc3ccccc3c(=O)[nH]2)ccc1O`, for which the IC50 is > 10 µM (inactive).

As for `CC(C)c1ccc(C2C3CSCC=C3C(C#N)=C(N)C2(C#N)C#N)cc1` (centres undefined), the IC50 was 9.55 µM (inactive).

As for `CCCCCCN=C(CC)c1c(O)n(CCCC)c(=O)[nH]c1=O`, the IC50 is 7.59 µM (inactive). For `Cc1cccc(C(=O)c2cnc3ccccc3c2-c2ccccc2)c1`, the IC50 is > 10 µM (inactive). As for `CCOc1cc(/C=C2/C(=O)ON=C2C)ccc1OCc1ccccc1F`, the figure is 9.48 µM (inactive). Regarding `Cc1nc2c(=O)n(C)c(=O)n(C)c2nc1Cl`, the IC50 is 3.79 µM (inactive). In the case of `O=C1C(N2CCOCC2)=C(n2nnc3ccccc32)C(=O)c2ccccc21`, the IC50 was 9.64 µM (inactive). As for `COc1cc(N(C(=O)Cc2cccs2)C(C(=O)NC2CCCCC2)c2ccc(C)cc2)ccc1-n1cnnn1` (centres undefined), the figure is 9.94 µM (inactive); as for `CN1/C(=C\C=C\C2=[N+](C)c3ccc4ccccc4c3C2(C)C)C(C)(C)c2ccccc21`, 0.41 µM (inactive); as for `Cc1cc(O)c(NC(=S)NC(=O)c2ccc(-c3ccc(Cl)cc3)o2)cc1C`, < 0.16 µM. Take `Cc1nnc(NC(=O)c2sc3nc(-c4cccs4)cc(C(F)(F)F)c3c2N)s1`: the IC50 was 5.97 µM (inactive).

As to `CCc1c(C)sc(NC(=O)CSc2nc3c(c(C(F)(F)F)n2)CCc2ccccc2-3)c1C#N`, the IC50 was 9.75 µM (inactive). As for `Cc1cccc(/C=C/c2nc3ccccc3c(=O)[nH]2)c1`, the IC50 is > 10 µM (inactive). As for `CC1=C(C)/C(=N\OS(=O)(=O)c2ccccc2)C=CC1=O`, the figure is 2.13 µM; as for `COc1ccccc1C(=O)NC(=Nc1nc2ccccc2o1)NC(=O)c1ccccc1OC`, 9.43 µM (inactive).

With `Cc1ccc(N2C(=O)NC(=O)/C(=C\C=C\c3ccco3)C2=O)cc1`, the IC50 is 9.55 µM (inactive). Regarding `COc1ccc(NC(=O)/C(Cl)=C(/Cl)S(=O)(=O)Cc2ccc(C)cc2)cn1`, the IC50 is > 10 µM (inactive). As for `Nc1c(S(=O)(=O)c2cccc(Cl)c2)c2nc3ccccc3nc2n1/N=C/c1ccc(O)c(O)c1`, the figure is 4.97 µM (inactive); as for `CCOC(=O)C1=C(c2ccc(OC)cc2)C(=O)c2ccccc2C1=O`, 8.81 µM (inactive); as for `CCCCCCn1c(=O)c(C(=O)N/N=C/c2cccc(F)c2)c(O)c2ccccc21`, 7.03 µM (inactive). As for `CC(C)NC(=O)c1ccccc1NC(=O)/C=C/c1cccc([N+](=O)[O-])c1`, the figure is 5.83 µM (inactive). As for `OC1(c2cccc(C(F)(F)F)c2)CCN(c2ncnc3c2[nH]c2ccc(F)cc23)CC1`, the figure is 4.54 µM (inactive); as for `Cc1ccc(-c2nc(C(Cl)Cl)c3ccccc3n2)cc1`, 2.08 µM; as for `O=C(NCc1nc(-c2ccc(C(F)(F)F)cc2)no1)Nc1ccc(OC(F)(F)F)cc1`, 2.03 µM. As for `O=c1c(Cl)c(Cl)cnn1-c1ccccc1`, the IC50 was 9.45 µM (inactive). As for `C=CCn1c(SCC(=O)Nc2ccc(-c3nc4ccc(C)cc4s3)cc2)nnc1-c1ccccc1`, the figure is 9.89 µM (inactive); as for `FC(F)(F)c1nnc(-c2ccccc2)nc1Sc1ccc(Cl)cc1`, > 10 µM (inactive); as for `CC(C)(C)OC(=O)NCCc1nnc(S(=O)(=O)Cc2ccc(Cl)cc2Cl)o1`, > 10 µM (inactive). As for `C=C1C(=O)O[C@@H]2C[C@@H](C)[C@@H]3C=CC(=O)[C@@]3(C)[C@@H](O)[C@H]12`, the figure is 2.61 µM; as for `O=C1c2ccccc2C(=O)C1c1nccc2ccccc12`, 5.41 µM (inactive); as for `Cc1ccc(N(c2ncnc(N)c2[N+](=O)[O-])C2CCCCC2)cc1`, > 10 µM (inactive). As for `O=C1c2ccccc2-c2onc3ccc(Oc4ccccc4)c1c23`, the figure is 9.64 µM (inactive); as for `O=S1(=O)C=C(Sc2nnc(-c3ccccc3)o2)c2ccccc21`, 4.34 µM; as for `O=S(=O)(Nc1cccc2c1CCCC2)c1cccc(C(F)(F)F)c1`, 9.51 µM (inactive).

Turning to `COc1ccc(NC(=O)/C(Cl)=C(/Cl)S(=O)Cc2ccccc2Cl)cn1` (centres undefined), the IC50 was 0.3 µM. Turning to `C[C@H](NC(=O)c1[nH]cnc1C(=O)Nc1ccc(CNC(=O)OC(C)(C)C)cc1)C(=O)OC(C)(C)C`, the IC50 was > 10 µM (inactive). As for `Cc1ccn2cc(-c3cc4ccccc4oc3=O)nc2c1`, the figure is 9.15 µM (inactive); as for `O=C1c2[nH]nc(-c3ccccc3O)c2C(c2cccc(Cl)c2)N1Cc1ccco1` (centres undefined), 9.62 µM (inactive); as for `O=C1c2ccccc2C(=O)c2c1oc(C(F)(F)F)c2C(=O)c1ccccc1`, 9.61 µM (inactive).

Consider `Cc1ccc2nc(NC(=O)C3CCN(S(=O)(=O)c4cc([N+](=O)[O-])ccc4Cl)CC3)sc2c1`, for which the IC50 is 3.51 µM.

`CS(=O)(=O)c1nc(-c2cccs2)cc(C(F)(F)F)n1`: the IC50 was < 0.16 µM. As for `O=C(c1nnsc1S(=O)(=O)c1ccc(Cl)cc1)N1CCOCC1`, the figure is 9.43 µM (inactive); as for `O=C(/C=C/c1cccc([N+](=O)[O-])c1)n1cnc2ccccc21`, 5.36 µM (inactive).
